Results: patent publication US11613535B2, “Compounds for MYC inhibition” (THE SCRIPPS RESEARCH INSTITUTE, priority 2018, dated 2023)
≈ marks a conversion by molar mass, not a printed value.

How the values were obtained:
MYC = target: T1, MYC (Homo sapiens, UniProt P01106); assay: MYC affinity assessment by Bio-FET concentration curve; type: binding; conditions: concentration for ½ Rmax, averaged across three chips
T1 construct: A His-tagged bHLH construct was immobilized on a chip for site-specific functionalization; made in house; host or cells: BL21 E. coli
Protocol: (§1) A 10 mg/kg i.v. PK study was conducted in mouse to determine if these favored properties translated into improved PK. Non-compartmental analysis of the mouse PK followed by allometric scaling to the rat afforded a comparison to the rat PK study conducted previously on 5a and is shown in Table 2.
(§2) FET functionalization and regeneration. FET experiments were conducted on an Agile R100 (Nanomedical Diagnostics) at ambient temperature. Chips were functionalized with Ni-NTA according to manufacturer protocols. Surface-bound Ni-NTA sites were then bound to His-tagged protein by 15 min incubation with ˜100 nM protein in 50 mM MES (pH 6.0). Ni-NTA functionalized chips were regenerated via treatment with 250 mM imidazole for 30 mins, followed by extensive washing in MES, then reintroduction of His-tagged protein.
MYC affinity assessment. […] Varying concentrations of 5g were allowed to equilibrate with MYC, and the Req values plotted against the concentration. […] This was repeated across three chips and the affinity averaged across those three runs.

[1] = PK analysis of 5g, 10 mg/kg i.v.; type: in vivo, C57BL/6 mice
Protocol: as §1
PK analysis. Pharmacokinetic analysis of 5g was conducted by Explora Biolabs. 12 C57BL/6 (6 male, 6 female) mice were administered 5g at 10 mg/kg by IV injection. Blood samples were collected at 2 min and 0.08, 0.25, 0.5, 1, 2, 8 and 24 hours post-injection. Bioanalysis was conducted by Integrated Analytical Solutions by processing through a Shimadzu VP series 10 system LC followed by mass analysis on an Applied Biosystems/MDS SCIEX API 3000 triple quadrupole mass spectrometer. All procedures involving the care and use of animals was approved by the IACUC at Explora BioLabs.

[2] = system: CEF transfected with ATG-MYC; assay: CEF focus assay (microtumor formation); type: cell-based, chicken; conditions: Measured in CEF transfected with ATG-MYC
From the text: The lead exemplified compound in the prior patent application is termed KJ-Pyr-9 herein. […] CEF assay.

His-tagged MYC = target: T2, His-tagged MYC (Homo sapiens, UniProt P01106); assay: Bio-FET relative binding studies; conditions: Relative to 5a Req; compounds at 10 μM in MES (pH 6.0) with 3% DMSO
T2 construct: A His-tagged bHLH construct was immobilized on a chip for site-specific functionalization; made in house; host or cells: BL21 E. coli
Protocol: (§3) Compound solubilities were measured by dynamic light scattering (Table 1). […] 2. Detection was conducted on a graphene surface. 3. A His-tagged bHLH construct was immobilized on a chip for site-specific functionalization. […] Compounds were also screened against a monomeric form of MAX (mMAX), as well as MYC-MAX and MAX-MAX dimers.
Protein expression and purification. His-tagged MYC, mMAX, MYC-MAX, and MAX-MAX constructs were expressed in BL21 E. coli cells and purified as previously described.^10
as §2, with “Surface-bound Ni-NTA sites were then bound to His-tagged protein by 15 min incubation with ˜100 nM protein in 50 mM MES (pH 6.0).” left out
Relative binding studies. Test compounds were dissolved to desired concentration in MES (pH 6.0) buffer with 3% DMSO. Protein-bound chips were initialized and rinsed in MES buffer with 3% DMSO. For relative binding studies, 6-8 test compounds (including 5a) were analyzed at 10 μM in a single run, and the Req determined and compared to that of 5a. Compounds were tested a minimum of three times across different chips.

[3] = Solubility analysis by dynamic light scattering; type: physicochemical
Protocol: as §3
Solubility analysis. Compounds were analyzed for solubility by dynamic light scattering on a DynaPro NanoStar detector (Wyatt Technology). Compounds were dissolved in MES (pH 6.0) from a 1000×DMSO stock at varying concentrations. Samples were analyzed for aggregation and the maximal concentration at which aggregates were not observed was used as the measure of solubility.

T2 sequence (P01106 369-421 limits assumed): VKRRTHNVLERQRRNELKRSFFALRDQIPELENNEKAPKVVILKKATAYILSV
T1 sequence (P01106 369-421 limits assumed): as above

| Kd (MYC) | improvement in exposure (AUC) ([1]; 5g versus 5a) | mean residence time ([1]; 5g, 10 mg/kg i.v. mouse PK, comparison) | AUC ([1]; 5g, 10 mg/kg i.v., C57Bl6 mice) | CI ([1]; 5g, 10 mg/kg i.v., C57Bl6 mice) | Half-life ([1]; 5g, 10 mg/kg i.v., C57Bl6 mice) | Vss ([1]; 5g, 10 mg/kg i.v., C57Bl6 mice) | MRT ([1]; both sexes, C57BL/6, mouse, blood, iv, 5g, 10 mg/kg i.v., C57Bl6 mice) | IC50 ([2]; Gallus gallus) | FET Req (His-tagged MYC) | Solubility ([3]; Measured by DLS in MES (pH 6.0) with <0.1% DMSO) | IC50 [2] | Solubility ([3]; pH 6) | SMILES |
| --- | --- | --- | --- | --- | --- | --- | --- | --- | --- | --- | --- | --- | --- |
| 0.0125 ± 0.0041 µM | 30 fold | 4.8 h | 44,000 ng*h/mL | 3.8 mL/min/kg | 4.8 h | 0.97 L | 4.3 h | 5 µM | 97% | 125 µM (≈ 52.9 µg/mL) |  |  | NC(=O)c1ccc(-c2cc(-c3ccc(-c4nccs4)cc3)nc(-c3ccco3)c2)cc1 [Compound 5g] |
|  |  |  |  |  |  |  |  |  | 0% |  | 10 µM | 32 µM (≈ 9.58 µg/mL) | N#Cc1ccc(-c2cc(-c3ccc(C(N)=O)cc3)ccn2)cc1 [Compound 7a] |
|  |  |  |  |  |  |  |  |  | 0% |  |  | 10 µM (≈ 2.46 µg/mL) | N#Cc1ccc(-c2cccc(-c3ccco3)n2)cc1 [Compound 7b] |
